This note sets out measurements from EP0414931B1, “Hypotensive agent” (TANABE SEIYAKU CO., LTD., priority 1989, dated 1991).

Marks after values point to notes of the source that are not given here.

For assay [1], the system named is SHR. As to the kind of experiment: Hypotensive activity in SHR by single administration of test compound (tail-cuff method). The note with it: SHR about 40 weeks old, fasted overnight; for rate of change of the blood pressure: 200 mg/kg orally, single dose, 2 hours after administration against before administration; for decrease of the systolic blood pressure: 200 mg/kg orally once, 2 hours after administration in comparison with before administration. It counts as in vivo, rats. On the procedure: The phenoxyacetic acid derivatives (I) and pharmaceutically acceptable salts thereof, which are the active ingredient for use in the preparation of the hypotensive agent have an excellent hypotensive activity.
A suspension of a test compound in water containing a small amount of Tween 80 was administered orally in a volume of 1 ml/100 g of rat's weight (a dose of the test compound: 200 mg/kg) to SHR (about 40 weeks old, 4 to 6 rats/group) fasted overnight. The blood pressure before and after administration of the test compound were measured noninvasively by the tail-cuff method, and estimated the rate of the change of the blood pressure 2 hours after administration of the test compound against the blood pressure before administration of the test compound. In both of test compound No. (1) and No. (2), the rate of change of the blood pressure was about -13 %.

Another assay has as its system established-SHR. Briefly: Antihypertensive activity in SHR in the established hypertension condition (tail-cuff method). The assay is classed as in vivo, rats. The settings on record: for Systolic blood pressure: 100 mg/kg/day orally once a day for 3 weeks, established-SHR 18 weeks old. On the procedure: (§1) A suspension of the test compound (1) in water containing a small amount of Tween 80 was administered orally in a volume of 10 ml/kg (a dose of the test compound: 100 mg/kg/day) once a day for 4 weeks to SHR (5 weeks old, weight; about 100 g, 10 rats/group) in the test compound-administered group. On the other hand, the same amount of water containing a small amount of Tween 80 was administered to the rats in control group instead of the suspension of the test compound (1). The systolic blood pressure of rats of the both groups was measured once a week until the fifth week by the tail-cuff method.
Using the SHR being in the established hypertension (established-SHR, 18 weeks old, weight; 300 to 375 g, 8 rats/group), the same procedures were carried out as Experiment 3 except that the period of administration of the test compound (1) was 3 weeks, and the systolic blood pressure was measured until the third week after administration.

The subject of assay [2] is established DOCA-salt hypertensive rats. Briefly: Antihypertensive activity in DOCA-salt rats in the established hypertension condition (tail-cuff method). The assay is classed as in vivo. On the procedure: (§2) A left kidney was taken out from male SD rats (6 weeks old, weight; about 200 g, 10 rats/group), and 1 week later, silicon resin containing 150 mg/kg of deoxycorticosterone acetic acid (DOCA) was embedded in subcutaneous tissue at the back of each rat under ether anesthesia. After operation, the rats were provided with water containing 1 % sodium chloride and 0.2 % potassium chloride as drinking water in order to produce DOCA-salt rats. From the next day after operation of embedding the silicon resin containing DOCA, a suspension of the test compound (I) in water containing a small amount of Tween 80 was administered orally in a volume of 10 ml/kg (a dose of the test compound: 50 mg/kg/day) once a day for 4 weeks in the test compound-administered group. On the other hand, the same amount of water containing a small amount of the Tween 80 was administered in the control group instead of the suspension of the test compound (1). The systolic blood pressure of rats in the both groups was measured once a week until the fourth week by the tail-cuff method.
as §1
The DOCA-salt loaded rats being in the stable hypertensive condition were obtained by feeding the DOCA-salt loaded rats used in Experiment 2 with tap water instead of aqueous salt solution for 6 weeks. Using these established DOCA-salt hypertensive rats (8 rats/group), the same experiments were carried out as Experiment 3 except that the dose of the test compound (1) was 50 mg/kg/day, the period of administration was 3 weeks, and the systolic blood pressure was measured until the fourth week after administration.

Assay [3] deals with SHR. As to the kind of experiment: Antihypertensive activity in SHR, repeated administration (tail-cuff method). The note with it: for Systolic blood pressure: SHR 5 weeks old. It counts as in vivo, rats. On the procedure:
as §1

A further assay has as its system DOCA-salt rats. Briefly: Antihypertensive activity on progressive hypertension in DOCA-salt rats (tail-cuff method). The note with it: for Systolic blood pressure: 50 mg/kg/day orally once a day for 4 weeks. The assay is classed as in vivo, male SD rats. The procedure:
as §2

`CCn1nccc1C(=O)c1ccc(OCC(=O)O)c(Cl)c1Cl` [(1), [2,3-dichloro-4-(1-ethyl-5-pyrazolylcarbonyl)phenoxy]acetic acid]: in the assay with SHR [1], the “rate of change of the blood pressure” value is given as “about -13%”. For the same compound, the “blood pressure in comparison with control group” value in the assay on established-SHR (100 mg/kg/day orally for 3 weeks, result in words) is reported as “decreased significantly from the first week after administration”; in assay [2] (50 mg/kg/day orally for 3 weeks, result in words), “decreased significantly from the second week after administration”. The Systolic blood pressure is 207.3 mmHg in the assay with established-SHR (day 0); 189.6* mmHg in the assay on established-SHR (day 7); 201.8* mmHg in the assay with established-SHR (day 14); 198.6* mmHg with established-SHR (day 21); 171.1 mmHg in assay [2] (day 0, 50 mg/kg/day orally once a day for 3 weeks); 167.4 mmHg in assay [2] (day 7, 50 mg/kg/day orally once a day for 3 weeks). Besides, the Systolic blood pressure was 168.1* mmHg in assay [2] (day 14, 50 mg/kg/day orally once a day for 3 weeks); 170.7* mmHg in assay [2] (day 28 (one week after the 3-week dosing), 50 mg/kg/day orally); 131.2 mmHg in the assay on SHR [3] (day 0, 100 mg/kg/day orally once a day for 4 weeks); 141.0** mmHg in the assay with SHR [3] (day 7, 100 mg/kg/day orally once a day for 4 weeks); 161.9** mmHg in the assay on SHR [3] (day 14, 100 mg/kg/day orally once a day for 4 weeks); 175.4** mmHg in the assay with SHR [3] (day 21, 100 mg/kg/day orally once a day for 4 weeks). Moreover, the Systolic blood pressure is reported as 185.2** mmHg with SHR [3] (day 28, 100 mg/kg/day orally once a day for 4 weeks); 198.4** mmHg in the assay with SHR [3] (day 35 (one week after the 4-week dosing), 100 mg/kg/day orally); 121.6 mmHg in the assay with DOCA-salt rats (day 0); 140.3 mmHg in the assay on DOCA-salt rats (day 7); 165.0* mmHg in the assay on DOCA-salt rats (day 14); 182.0* mmHg in the assay with DOCA-salt rats (day 21). Further, in the assay with DOCA-salt rats (day 28), the Systolic blood pressure is reported as 193.3* mmHg. The “increase of blood pressure as compared with control group” value is given as “inhibited significantly from the first week after administration” in the assay on SHR [3] (100 mg/kg/day orally for 4 weeks, result in words) and “inhibited significantly from the second week after administration” with DOCA-salt rats (50 mg/kg/day orally for 4 weeks, result in words).

As for `CCOCn1nccc1C(=O)c1ccc(OCC(=O)O)c(Cl)c1Cl` [[2,3-dichloro-4-(1-ethoxymethyl-5-pyrazolylcarbonyl)phenoxy]acetic acid], the “decrease of the systolic blood pressure” value with SHR [1] is “about 13%”.

As for `CCOCn1nccc1C(=O)c1ccc(OCC(=O)O)c(Cl)c1Cl` [(2), [2,3-dichloro-4-(1-ethoxymethyl-5-pyrazolylcarbonyl)phenoxy]acetic acid], the “rate of change of the blood pressure” value in the assay with SHR [1] was “about -13%”.

As for `CCn1nccc1C(=O)c1ccc(OCC(=O)O)c(Cl)c1Cl` [[2,3-dichloro-4(1-ethyl-5-pyrazolylcarbonyl)phenoxy]acetic acid], the “decrease of the systolic blood pressure” value in the assay with SHR [1] was “about 13%”.
